The values that follow come from patent US20260256747A1, “ARYL-TRIAZOLYL AND RELATED GPR84 ANTAGONISTS AND USES THEREOF” (Liminal BioSciences Limited, priority 2022, published 2026).

pIC50: −log10 of the molar value. Where only a bound is given, the exact number is not on record here.

This assay concerns the target T1, human GPR84 receptor (Homo sapiens, UniProt Q9NQS5).
T1 construct: host or cells: HEK293 cells, transient transfection
As to the kind of experiment: Gαi biosensor BRET assay in HEK293 cells transfected with GPR84, stimulated with the GPR84 agonist ZQ-16. Type of assay: cell-based. The settings on record: 200 nmol/L ZQ-16; for inhibition at 10 µM / inhibition at 2 µM: HEK293, single concentration; for inhibition at 10 µM: concentration class F = 10 μM; for inhibition at 2 µM: concentration class A = 2 μM. The text has this:
Background—The following assays can be used for determination of GPR84 activation in living HEK293 cells. The Gαi BRET biosensor (Gagnon et al., 2018; Gales et al., 2006. Nat Struct Mol Biol. 13, 778-86; Saulieres et al., 2012. Nat Chem Biol. 8, 622-30) allows to directly monitor GPR84-mediated activation of Gαi. The Gαi biosensor consists of a Rluc8-tagged Gαi2 subunit, a GFP10-tagged Gγ2 subunit, and an untagged GB1. Agonist stimulation and GPR84 activation triggers a physical separation between the RLuc8-Gαi donor and the GFP10-Gγ2 acceptor, resulting in a decrease in BRET signal whose amplitude is correlated to ligand efficacy (Gales et al., 2006). Moreover, signaling functions of GPCRs are tightly regulated by endocytosis, the targeting of receptors to endosomes and their sorting to lysosomes or recycling to the plasma membrane. The early endosomes (EEs) trafficking assay (Namkung et al., 2016. Nat Commun. 7, 12178) uses Rluc8-tagged GPR84 and Renilla GFP (rGFP) attached to the FYVE domain from human endofin/zinc finger FYVE domain-containing protein 16, which binds phosphatidylinositol 3-phosphate in EEs. Agonist stimulation of GPR84-Rluc8 leads to trafficking of the receptor to EEs, and ensuing increase of the donor concentration relative to the rGFP-FYVE acceptor anchored in the same cellular compartment, and thus results in an increase in BRET signal.
Plasmids—The cDNA clones for human GPR84 receptor, human Gαi2, Gβ1, and Gγ2 were obtained from the cDNA Resource Center (www.cdna.org). GFP10 (F64L, S147P, S202F and H231L variant of Aequorea victoria Green Fluorescent Protein) gBlocks gene fragments (Integrated DNA Technologies, IA) and linker were inserted in frame at the N-terminus of human Gγ2. Rluc8 (A^55T, Cl24A, S130A, K136R, A^143M, M185V, M253L, and S287L variant of the Renilla reniformis luciferase) gBlocks gene fragment was inserted with linkers in frame in between residues 91 and 92 of Gαi2 or at the C-terminus of GPR84. The FYVE domain from human endofin (residues Q739 to K806) attached in frame at the C terminus of a humanized Renilla GFP (rGFP), were synthesized as gBlocks gene fragments.
Bioluminescence Resonance Energy Transfer (BRET) Measurement-HEK293 cells were transfected with GPR84-Rluc8 and rGFP-FYVE for the EEs trafficking biosensor or with GPR84, Gαi2-Rluc8, GFP10-Gγ2, and Gβ1 for the Gαi biosensor. The following day, transiently transfected cells were seeded in 96-well white clear bottom microplates coated with poly-D-lysine and left in culture for 24 hours. Cells were washed once with Tyrode's buffer (140 mmol/L NaCl, 1 mmol/L CaCl2, 2.7 mmol/L KCl, 0.49 mmol/L MgCl2, 0.37 mmol/L NaH2PO4, 5.6 mmol/L glucose, 12 mmol/L NaHCO3, and 25 mmol/L HEPES, pH 7.5) before performing assays in Tyrode's buffer. Test compounds were incubated with cells for 5 (Gai) or 15 (EEs) minutes at 37° C. before addition of 200 nmol/L of the GPR84 agonist ZQ-16 (2-(Hexylthio)-6-hydroxy-4 (3H)-pyrimidinone) for 5 minutes at room temperature (Gai) or 30 minutes at 37° C. (EEs). The Rluc8 substrate coelenterazine 400A (Prolume, Lakeside, AZ) was added at a final concentration of 5 μmol/L and BRET readings were collected using an Infinite M1000 microplate reader (Tecan, Morrisville, NC). BRET2 readings between Rluc8 and GFP10 or rGFP were collected by sequential integration of the signals detected in the 370 to 450 nm (Rluc8) and 510 to 540 nm (GFP10, rGFP) windows. The BRET signal was calculated as the ratio of light emitted by acceptor (GFP10, rGFP) over the light emitted by donor (Rluc8). The values were corrected to net BRET by subtracting the background BRET signal obtained in cells transfected with Rluc8 constructs alone. Ligand-promoted net BRET values were calculated by subtracting vehicle-induced net BRET from ligand-induced net BRET.
A general note: Bioluminescence resonance energy transfer reports proximity on the nanometre scale.

T1 sequence (Q9NQS5 whole entry): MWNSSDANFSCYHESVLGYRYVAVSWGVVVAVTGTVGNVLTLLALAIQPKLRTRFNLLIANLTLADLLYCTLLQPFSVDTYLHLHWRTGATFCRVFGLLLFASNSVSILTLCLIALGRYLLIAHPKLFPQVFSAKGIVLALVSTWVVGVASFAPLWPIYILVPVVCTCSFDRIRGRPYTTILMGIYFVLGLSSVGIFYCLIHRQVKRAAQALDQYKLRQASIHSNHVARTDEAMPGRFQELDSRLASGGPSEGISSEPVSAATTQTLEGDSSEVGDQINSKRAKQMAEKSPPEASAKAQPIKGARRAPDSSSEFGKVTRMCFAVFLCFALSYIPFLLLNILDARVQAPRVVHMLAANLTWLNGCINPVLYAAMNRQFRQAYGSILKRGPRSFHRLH

As to `Cc1cc(C#CC2CC2)ccc1-c1nnc(-c2cn(CC(=O)N(C)C)nn2)o1` [Compound I-259], the inhibition (in general, how much of the control response was suppressed) at 10 µM was not above 25%.

`CNC(=O)Cn1cc(-c2ncc(C#CC3CC3)cc2OC2CC2)nn1` [Compound I-67] returned an inhibition at 10 µM of 25 to 50%.

Compound `CN(C)C(=O)CN(C)c1cnc(-c2cn(CC3OCC4(CC4)CO3)nn2)c(OC2CC2)c1` [Compound I-231] had an inhibition at 10 µM not above 25%.

For the compound `Cc1cc(N2CCN(C(C)c3ccccn3)CC2)ccc1-c1cn(CC2OCC3(CC3)CO2)cn1` (centres unmarked) [Compound I-48], the pIC50 (as a rule, the negative decadic logarithm of the IC50, by convention in mol/L) is not below 6.52 and the inhibition at 10 µM is more than 75%.

The compound `O=C(Cn1cc(-c2ncc(C#CC3CC3)cc2OC2CC2)nn1)N1CCCC1` [Compound I-64] had a pIC50 of 6.00 to 6.52 and an inhibition at 10 µM of more than 75%.

As to `Cn1ncc(-c2cnc(-c3cn(CC4OCC5(CC5)CO4)nn3)c(OC3CC3)c2)n1` [Compound I-226], the pIC50 is not below 6.52 and the inhibition at 2 µM was more than 75%.

Take `c1n[nH]cc1-c1cnc(-c2cn(CC3OCC4(CC4)CO3)nn2)c(OC2CC2)c1` [Compound I-236]: the negative logarithm of the IC50 (pIC50) was 6.00 to 6.52 and the inhibition at 10 µM is more than 75%.

The compound `CC1(CO)CN(c2cnc(-c3cn(CC4OCC(F)(F)CO4)nn3)c(OC3CC3)c2)C1` [Compound I-27] gave an inhibition at 10 µM of 50 to 75%.

Turning to `O=C1OC(c2ccc(C#CC3CC3)cc2)CN1CC1CCCCO1` (centres unmarked) [Compound I-65], the inhibition at 10 µM was in the range of 25 to 50%.

For the compound `O=C(Cn1cc(-c2c(OC3CC3)cc(C#CC3CC3)c[n+]2[O-])nn1)N1CCCC1` [Compound I-253], the pIC50 is 5.52 to 6.00 and the inhibition at 10 µM is more than 75%.

Turning to `O=C(Cn1cc(-c2ncc(C#CC3CC3)cc2OC2CC2)nn1)N1C[C@@H](O)[C@H](O)C1` [Compound I-246], the inhibition at 10 µM was 50 to 75%.

`CC1(C)COC(Cn2cc(Cc3cc(C#CC4CC4)ccc3C(F)(F)F)nn2)OC1` [Compound I-58] returned an inhibition at 10 µM of more than 75%.

In turn, `Cc1ccc(C#CC2CC2)cc1-c1nnc(-c2cn(CC(=O)N(C)C)nn2)o1` [Compound I-260] yielded an inhibition at 10 µM not above 25%.

As for `O=C(Cn1cc(-c2ncc(C#CC3CC3)cc2OC2CC2)cn1)N1CCCC1` [Compound I-217], the inhibition at 10 µM is 25 to 50%.

Compound `CCc1cc(C#CCN)ccc1-c1cn(CC2OCC(C)(C)CO2)nn1` [Compound I-2] had a pIC50 of 6.00 to 6.52 and an inhibition at 10 µM of more than 75%.

Consider `CN(c1cccc(C#N)c1)c1cn(CC2OCC(C)(C)CO2)nn1` [Compound I-160], for which the inhibition at 10 µM is 25 to 50%.

As to `Cc1cc(N2CCN(Cc3ccccn3)CC2)ccc1-c1cn(CC2OCC3(CC3)CO2)cn1` [Compound I-139], the inhibition at 10 µM was more than 75%.

Compound `C(#CC1CCC1)c1cnc(-c2cn(CC3OCC4(CC4)CO3)nn2)c(OC2CC2)c1` [Compound I-6] gave an inhibition at 2 µM of more than 75%.

For the compound `CC1(C)COC(Cn2cc(-c3ncc(C(=O)NCc4cnccn4)cc3OC3CC3)nn2)OC1` [Compound I-10], the inhibition at 10 µM was not above 25%.

Turning to `CN(C)C(=O)Cn1cc(-c2ncc(C#CC3CC3)cc2OC2CC2)nn1` [Compound I-23, 2-(4-(3-cyclopropoxy-5-(cyclopropylethynyl)pyridin-2-yl)-1H-1,2,3-triazol-1-yl)-N,N-dimethylacetamide], the pIC50 was 5.52 to 6.00 and the inhibition at 10 µM is more than 75%.

In the case of `Cn1cc(-c2cnc(-c3cn(CC4OCC5(CC5)CO4)nn3)c(OC3CC3)c2)nn1` [Compound I-227], the pIC50 is not below 6.52 and the inhibition at 2 µM is more than 75%.

For `CC1(C)CN(CC#Cc2cnc(-c3cn(CC4OCC5(CC5)CO4)nn3)c(CC3CC3)c2)C1` [Compound I-118], the pIC50 is not below 6.52 and the inhibition at 2 µM is more than 75%.

On to `Cc1ccc(C#CC2CC2)cc1C(F)(F)c1cn(CC2OCC3(CC3)CO2)nn1` [Compound I-264], for which the inhibition at 2 µM was more than 75%.

As to `C(#CC1CC1)c1cnc(-c2cn(Cc3cc4ccccc4[nH]3)nn2)c(OC2CC2)c1` [Compound I-70], the inhibition at 10 µM was not above 25%.

The compound `CN(C)C(=O)Cn1cnc(-c2ncc(C#CC3CC3)cc2OC2CC2)c1` [Compound I-51] showed an inhibition at 10 µM of more than 75%.

`Cn1nnnc1-c1cnc(-c2cn(CC3OCC4(CC4)CO3)nn2)c(OC2CC2)c1` [Compound I-222] gave an inhibition at 10 µM not above 25%.

For `O=C(Cn1cc(-c2nc(O)c(C#CC3CC3)cc2OC2CC2)nn1)N1CCCC1` [Compound I-249], the inhibition at 2 µM was not above 25%.

For `C(#Cc1ccc(-c2cn(CC3OCC4(CC4)CO3)nn2)c(C2CC2)c1)COC1CC1` [Compound I-4], the pIC50 was 6.00 to 6.52 and the inhibition at 2 µM is more than 75%.

As for `CCc1cc(C#CCNS(C)(=O)=O)ccc1-c1cn(CC2OCC(C)(C)CO2)nn1` [Compound I-1, N-(3-(4-(1-((5,5-dimethyl-1,3-dioxan-2-yl)methyl)-1H-1,2,3-triazol-4-yl)-3-ethylphenyl)prop-2-ynyl)methanesulfonamide], the pIC50 was 6.00 to 6.52 and the inhibition at 10 µM is more than 75%.

Turning to `Cc1cc(C#CC2CC2)ccc1-c1cn(Cc2cscn2)nn1` [Compound I-19], the inhibition at 2 µM is not above 25%.

`[2H]C([2H])([2H])N(c1cc(N2CC(C)(CO)C2)ccc1-c1cn(CC2OCC3(CC3)CO2)nn1)C([2H])([2H])[2H]` [Compound I-55] showed a pIC50 of 6.00 to 6.52 and an inhibition at 10 µM of more than 75%.

In turn, `CC1(C)COC(Cn2cc(-c3ncc(C#N)cc3OC3CC3)nn2)OC1` [Compound I-14] had a pIC50 of 6.00 to 6.52 and an inhibition at 10 µM of more than 75%.

With `CC(=O)NCC#Cc1cnc(-c2cn(CC3OCC(C)(C)CO3)nn2)c(OC2CC2)c1` [Compound I-15], the pIC50 was not below 6.52 and the inhibition at 2 µM was more than 75%.

For the compound `[2H]C([2H])([2H])N(c1cc(N2CC(C)(CO)C2)ccc1-c1cn(CC2OCC(C)(C)CO2)nn1)C([2H])([2H])[2H]` [Compound I-50], the pIC50 is 6.00 to 6.52.

`Cc1cc(C#CCN2CC(C)(C)C2)cnc1-c1nnn(CC2OCC(C)(C)CO2)n1` [Compound I-111] gave a pIC50 of 5.52 to 6.00 and an inhibition at 10 µM of more than 75%.

`CCc1cc(C#CC(N)=O)ccc1-c1cn(CC2OCC(C)(C)CO2)nn1` [Compound I-37] gave a pIC50 not below 6.52 and an inhibition at 10 µM of more than 75%.

`Cc1ccc(C#CC2CC2)cc1C(F)(F)c1cn(CC2CCCCO2)nn1` (centres unmarked) [Compound I-99] displayed an inhibition at 2 µM of 50 to 75%.

Compound `CC1(CO)CN(c2ccc(-c3cn(CC4OCC5(CCC5)O4)nn3)c(CC(F)(F)F)c2)C1` (centres unmarked) [Compound I-144] came in with an inhibition at 10 µM of more than 75%.

`CC1(C)COC(Cn2cc(-c3ncc(C(F)(F)F)cc3OC3CC3)nn2)OC1` [Compound I-49] yielded an inhibition at 2 µM of 50 to 75%.

`CN(C)c1cc(N2CC3(COC3)C2)ccc1-c1cn(CC2OCC(C)(C)CO2)cn1` [Compound I-45, 2-(1-((5,5-dimethyl-1,3-dioxan-2-yl)methyl)-1H-imidazol-4-yl)-N,N-dimethyl-5-(2-oxa-6-azaspiro[3.3]heptan-6-yl)aniline] had a pIC50 of 5.52 to 6.00 and an inhibition at 10 µM of more than 75%.

On to `FC1(F)CC12CN(CC#Cc1cnc(-c3cn(CC4OCC5(CC5)CO4)nn3)c(OC3CC3)c1)C2` [Compound I-16], for which the pIC50 is not below 6.52 and the inhibition at 2 µM was more than 75%.
